Results: US10183936B2, “Hepatitis B core protein allosteric modulators” (priority 2014, dated 2019)

Legend:
[1] = system: HBV viral production in AD38 cells; assay: Viral load production in AD38 cells by quantitative PCR of the HBV core sequence in supernatant; assay type: cell-based; conditions: 10 μM compound, 6 days at 37° C., viral load in supernatant compared against DMSO control wells; for activity at 10 µM: Hepatitis B virus, 144 h, read-out: AD38 Viral Load (CpAM/DMSO %) at 10 μM
Method in brief: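 AD38 cells seeded at 50,000/well, treated 6 days at 37° C with compound added as 10× solution in 10% DMSO. HBV core sequence in clarified supernatant quantified by TaqMan qPCR against known standards; viral load compared with DMSO control wells.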

AD38 cells = assay: Viability of AD38 cells (Promega CellTiter-Glo) at the end of compound treatment; assay type: cell-based; conditions: 10 μM compound, 6 days, luminescence normalized against DMSO control wells (controls being 100%)
Method in brief: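 AD38 cells seeded at 50,000/well received compound from a 10× solution in 10% DMSO and were incubated 6 days at 37° C. Viability was then read by CellTiter-Glo luminescence in tetracycline-free medium with 2% FBS and 1% DMSO, normalized to DMSO control wells (100%) and reported as percent viability.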

| SMILES | activity at 10 µM [1] [%] | AD38 Viability Normalized Result (CPAM/DMSO %) at 10 μM (AD38 cells) [%] | AD38 Viral Load (CpAM/DMSO %) at 10 μM [1] [%] |
| --- | --- | --- | --- |
| Cc1ncc(CNC(=O)c2ccc3c(c2)NC(=O)c2ccccc2S3)s1 [Compound 1588] | 0 | 98 | – |
| O=C(NCc1scnc1Cl)c1ccc2c(c1)NC(=O)c1ccccc1S2 [Compound 1632] | 2 | 122 | – |
| O=C(NCc1cncnc1)c1ccc2c(c1)NC(=O)c1ccccc1S2(=O)=O [Compound 1446] | 3 | 84 | – |
| CS(=O)(=O)c1ccc(CCNC(=O)c2ccc3c(c2)NC(=O)c2ccccc2S3)cc1 [Compound 1103] | 2 | 87 | – |
| O=C(Nc1cncnc1)c1ccc2c(c1)NC(=O)c1cc(F)ccc1S2 [Compound 1328] | 54 | 105 | – |
| O=C(NCCc1cncs1)c1ccc2c(c1)NC(=O)c1ccc(F)cc1S2 [Compound 1403] | 15 | 82 | – |
| O=C(NCc1cnc(-c2ccccc2)s1)c1ccc2c(c1)NC(=O)c1ccccc1S2 [Compound 1590] | 1 | 96 | – |
| CCCCCCCCNC(=O)c1ccc2c(c1)NC(=O)c1ccccc1S2 [Compound 1152] | 1 | 45 | – |
| Cc1nnc(CNC(=O)c2ccc3c(c2)NC(=O)c2ccccc2S3)o1 [Compound 1578] | 33 | 100 | – |
| COc1ccc2c(c1)C(=O)Nc1cc(C(=O)NCCC3CCCCC3)ccc1S2 [Compound 1272] | 24 | 102 | – |
| O=C(NCCC1CCCCC1)c1ccc2c(c1)NC(=O)c1ccccc1S2 [Compound 1105] | 1 | 101 | – |
| CCc1cccc(CNC(=O)c2ccc3c(c2)NC(=O)c2ccccc2S3)c1 [Compound 1283] | 1 | 97 | – |
| O=C(NCc1ccccc1OC(F)(F)F)c1ccc2c(c1)NC(=O)c1ccccc1S2 [Compound 1232] | 42 | 94 | – |
| O=C(NC[C@H](O)c1ccccc1)c1ccc2c(c1)NC(=O)c1ccccc1S2 [Compound 1220] | 2 | 94 | – |
| O=C(CCC1CCCCC1)Nc1ccc2c(c1)NC(=O)c1ccccc1S2 [Compound 1207] | 24 | 99 | – |
| O=C(Nc1ccc(Cl)cc1)c1ccc2c(c1)NC(=O)c1cc(F)ccc1S2 [Compound 1321] | 15 | 74 | – |
| O=C(NCCOc1ccc(F)cc1)c1ccc2c(c1)NC(=O)c1ccccc1S2 [Compound 1208] | 11 | 103 | – |
| O=C(NCCc1cccc(C(F)(F)F)c1)c1ccc2c(c1)NC(=O)c1ccccc1S2 [Compound 1195] | 0 | 48 | – |
| Cc1ccccc1CNC(=O)c1ccc2c(c1)NC(=O)c1ccccc1S2 [Compound 1187] | 1 | 73 | – |
| O=C(Nc1cccc(-c2cnco2)c1)c1ccc2c(c1)NC(=O)c1cc(F)ccc1S2 [Compound 1386] | 61 | 95 | – |
| O=C(NCc1cccnc1)c1ccc2c(c1)NC(=O)c1ccccc1S2(=O)=O [Compound 1449] | 2 | 86 | – |
| O=C(NCC1CCCC1)c1ccc2c(c1)NC(=O)c1ccccc1S2 [Compound 1193] | 4 | 90 | – |
| O=C(NCc1ccc(-c2cncnc2)cc1)c1ccc2c(c1)NC(=O)c1cc(F)ccc1S2 [Compound 1314] | 69 | 101 | – |
| O=C1Nc2cc(S(=O)(=O)N3CCC(O)CC3)ccc2Sc2ccccc21 [Compound 1431] | 115 | 92 | – |
| O=C(NCc1cncnc1)c1ccc2c(c1)NC(=O)c1c(F)cccc1S2 [Compound 1540] | 12 | 87 | – |
| O=C(NCCOc1ccccc1)c1ccc2c(c1)NC(=O)c1ccccc1S2 [Compound 1192] | 3 | 81 | – |
| O=C(NCc1cncs1)c1ccc2c(c1)NC(=O)c1ccccc1[SH]2O (centres unmarked) [Compound 1535] | – | 85 | 108 |
| O=C(NCCc1cncnc1)c1ccc2c(c1)NC(=O)c1ccccc1[S+]2[O-] (centres unmarked) [Compound 1423] | 37 | 91 | – |

| SMILES | activity at 10 µM [1] [%] | AD38 Viability Normalized Result (CPAM/DMSO %) at 10 μM (AD38 cells) [%] | AD38 Viral Load (CpAM/DMSO %) at 10 μM [1] [%] |
| --- | --- | --- | --- |
| O=C(NCc1scnc1-c1ccccc1)c1ccc2c(c1)NC(=O)c1ccccc1S2 [Compound 1605] | 25 | 106 | – |
| O=C(NCc1cccnc1)c1ccc2c(c1)NC(=O)c1ccccc1C2 [Compound 1591] | 13 | 111 | – |
| O=C1Nc2cc(S(=O)(=O)NCc3ccc(F)cc3)ccc2Sc2ccccc21 [Compound 1415] | 27 | 77 | – |
| CCCCNC(=O)c1ccc2c(c1)NC(=O)c1ccccc1S2 [Compound 1123] | 62 | 95 | – |
| O=C(NCCc1ccccn1)c1ccc2c(c1)NC(=O)c1ccccc1S2(=O)=O [Compound 1447] | 1 | 85 | – |
| O=C(Nc1cccc(-c2ccccc2)c1)c1ccc2c(c1)NC(=O)c1c(F)cccc1S2 [Compound 1472] | 37 | 95 | – |
| O=C(Nc1ccc(Cl)cc1F)c1ccc2c(c1)NC(=O)c1cc(F)ccc1S2 [Compound 1334] | 33 | 83 | – |
| O=C(Nc1nc2ccccc2o1)c1ccc2c(c1)NC(=O)c1cc(F)ccc1S2 [Compound 1354] | 98 | 70 | – |
| O=C(Nc1cc(F)c(F)c(F)c1)c1ccc2c(c1)NC(=O)c1cc(F)ccc1S2 [Compound 1324] | 10 | 24 | – |
| CCN1c2ccc(C(=O)NCCc3ccc(-c4ccccc4)cc3)cc2NC(=O)c2ccccc21 [Compound 1524] | 2 | 18 | – |
| O=C(NCCc1ccc(OC(F)(F)F)cc1)c1ccc2c(c1)NC(=O)c1ccccc1S2 [Compound 1182] | 13 | 55 | – |
| O=C(NCc1ccc(O)cc1)c1ccc2c(c1)NC(=O)c1ccccc1S2 [Compound 1196] | 2 | 95 | – |
| O=C(NCCc1ccc(-n2cnnc2)cc1)c1ccc2c(c1)NC(=O)c1ccccc1S2 [Compound 1267] | 77 | 93 | – |
| O=C(NCCC12CC3CC(CC(C3)C1)C2)c1ccc2c(c1)NC(=O)c1ccccc1S2 [Compound 1170] | 1 | 95 | – |
| O=C(Nc1cncs1)c1ccc2c(c1)NC(=O)c1cc(F)ccc1S2 [Compound 1335] | 87 | 104 | – |
| O=C(NCc1ccccc1)c1ccc2c(c1)NC(=O)c1ccccc1S2 [Compound 1107] | 2 | 106 | – |
| O=C1Nc2cc(S(=O)(=O)NCCc3cncnc3)ccc2Sc2ccccc21 [Compound 1597] | 64 | 87 | – |
| Cc1nnc(NC(=O)c2ccc3c(c2)NC(=O)c2cc(F)ccc2S3)o1 [Compound 1503] | 40 | 87 | – |
| CCN1c2ccc(C(=O)NCc3cncnc3)cc2NC(=O)c2ccccc21 [Compound 1533] | 2 | 105 | – |
| Cc1ncsc1CNC(=O)c1ccc2c(c1)NC(=O)c1ccccc1S2 [Compound 1600] | 12 | 108 | – |
| O=C(NCCc1cccnc1)c1ccc2c(c1)NC(=O)c1c(F)cccc1S2 [Compound 1555] | 36 | 81 | – |
| O=C(NCCc1cnco1)c1ccc2c(c1)NC(=O)c1cccc(F)c1S2 [Compound 1487] | 15 | 96 | – |
| O=C(NCc1cccc(OC(F)(F)F)c1)c1ccc2c(c1)NC(=O)c1ccccc1S2 [Compound 1203] | 3 | 89 | – |
| O=C(NCCc1cccc(O)c1)c1ccc2c(c1)NC(=O)c1ccccc1S2 [Compound 1118] | 61 | 95 | – |
| O=C(Nc1cncc(Cl)c1)c1ccc2c(c1)NC(=O)c1cc(F)ccc1S2 [Compound 1345] | 115 | 93 | – |
| O=C(NCCc1cncnc1)c1ccc2c(c1)NC(=O)c1ccccc1S2 [Compound 1290] | 33 | 94 | – |
| O=C(NCCc1cncnc1)c1cc2c(cc1F)Sc1ccccc1C(=O)N2 [Compound 1411] | 66 | 91 | – |
